Measurements taken from ChEMBL document CHEMBL5532637, “Antimicrobial activity of natural and semi-synthetic carbazole alkaloids” (Eur J Med Chem, 2023).
≈ marks a conversion by molar mass, not a printed value.

Key:
[1] = system: Nannizzia gypsea; experiment: Antifungal activity against Microsporum gypseum assessed as inhibition of fungal growth by serial dilution method; format: functional
[2] = system: Cryptococcus neoformans; experiment: Antifungal activity against Cryptococcus neoformans assessed as inhibition of fungal growth by serial dilution method; format: functional
[3] = system: Aspergillus fumigatus; experiment: Antifungal activity against Aspergillus fumigatus assessed as inhibition of fungal growth by serial dilution method; format: functional
[4] = system: Caulobacter vibrioides; experiment: Antibacterial activity against Caulobacter crescentus assessed as inhibition of bacterial growth incubated for 24 hrs; format: functional
[5] = system: Staphylococcus aureus; experiment: Antibacterial activity against Staphylococcus aureus assessed as inhibition of bacterial growth incubated for 24 hrs; format: functional
[6] = system: Staphylococcus aureus; experiment: Antibacterial activity against wild type Staphylococcus aureus assessed as inhibition of bacterial growth incubated for 20 hrs by broth microdilution method; format: functional
[7] = system: Staphylococcus aureus; experiment: Antibacterial activity against methicillin-resistant Staphylococcus aureus assessed as inhibition of bacterial growth incubated for 20 hrs by broth microdilution method; format: functional
[8] = system: Escherichia coli; experiment: Antibacterial activity against wild type Escherichia coli assessed as inhibition of bacterial growth incubated for 20 hrs by broth microdilution method; format: functional
[9] = system: Escherichia coli; experiment: Antibacterial activity against Escherichia coli expressing recombinant blaNDM-1 gene assessed as inhibition of bacterial growth incubated for 20 hrs by broth microdilution method; format: functional
[10] = system: Escherichia coli; experiment: Antibacterial activity against Escherichia coli expressing blaNDM-1 gene assessed as inhibition of bacterial growth incubated for 20 hrs by broth microdilution method; format: functional
[11] = system: Klebsiella pneumoniae; experiment: Antibacterial activity against Klebsiella pneumoniae assessed as inhibition of bacterial growth incubated for 20 hrs by broth microdilution method; format: functional
[12] = system: Bacillus subtilis; experiment: Antibacterial activity against Bacillus subtilis assessed as inhibition of bacterial growth incubated for 20 hrs by broth microdilution method; format: functional
[13] = system: Bacillus subtilis; experiment: Antibacterial activity against Bacillus subtilis 168 assessed as inhibition of bacterial growth by microdilution assay; format: functional
[14] = system: Staphylococcus aureus; experiment: Antibacterial activity against Staphylococcus aureus ATCC 29213 assessed as inhibition of bacterial growth by microdilution assay; format: functional
[15] = system: Moraxella catarrhalis; experiment: Antibacterial activity against Moraxella catarrhalis ATCC 43617 assessed as inhibition of bacterial growth by microdilution assay; format: functional
[16] = system: Staphylococcus simulans; experiment: Antibacterial activity against Staphylococcus simulans 22 assessed as inhibition of bacterial growth by microdilution assay; format: functional
[17] = system: Enterococcus faecium; experiment: Antibacterial activity against Enterococcus faecium BM 4147 assessed as inhibition of bacterial growth by microdilution assay; format: functional
[18] = system: Mycolicibacterium smegmatis; experiment: Antimicrobial activity against Mycobacterium smegmatis assessed as inhibition of microbial growth incubated for 18 to 20 hrs by broth microdilution method; format: functional; conditions: time 18-20 hrs
[19] = system: Candida albicans; experiment: Antimicrobial activity against Candida albicans assessed as inhibition of microbial growth incubated for 18 to 20 hrs by broth microdilution method; format: functional; conditions: time 18-20 hrs
[20] = system: Staphylococcus aureus; experiment: Antimicrobial activity against methicillin-resistant Staphylococcus aureus assessed as inhibition of microbial growth incubated for 18 to 20 hrs by broth microdilution method; format: functional; conditions: time 18-20 hrs
[21] = system: Bacillus mycoides; experiment: Antimicrobial activity against Bacillus mycoides assessed as inhibition of microbial growth incubated for 18 to 20 hrs by broth microdilution method; format: functional; conditions: time 18-20 hrs
[22] = system: Pseudomonas aeruginosa; experiment: Antibacterial activity against Pseudomonas aeruginosa assessed as zone of inhibition incubated for 24 hrs by disk diffusion method; format: functional
[23] = system: Staphylococcus aureus; experiment: Antibacterial activity against Staphylococcus aureus assessed as zone of inhibition incubated for 24 hrs by disk diffusion method; format: functional
[24] = system: Staphylococcus aureus; experiment: Antibacterial activity against methicillin-resistant Staphylococcus aureus assessed as inhibition of bacterial growth incubated for 24 hrs by two-fold serial dilution assay; format: functional
[25] = system: Staphylococcus aureus; experiment: Antibacterial activity against methicillin-sensitive Staphylococcus aureus assessed as inhibition of bacterial growth incubated for 24 hrs by two-fold serial dilution assay; format: functional
[26] = system: Candida albicans; experiment: Antifungal activity against Candida albicans SC5314 assessed as inhibition of fungal growth incubated for 24 hrs by microtiter plate reader assay; format: functional
[27] = system: Staphylococcus aureus; experiment: Antibacterial activity against Staphylococcus aureus assessed as inhibition of bacterial growth; format: functional, organism-based
[28] = system: Bacillus subtilis; experiment: Antibacterial activity against Bacillus subtilis assessed as inhibition of bacterial growth; format: functional
[29] = system: Staphylococcus aureus; experiment: Antimicrobial activity against Staphylococcus aureus assessed as inhibition of microbial growth incubated for 18 hrs by agar diffusion method; format: functional
[30] = system: Staphylococcus aureus; experiment: Antimicrobial activity against methicillin-resistant Staphylococcus aureus assessed as inhibition of microbial growth incubated for 18 hrs by agar diffusion method; format: functional
[31] = system: Candida albicans; experiment: Antimicrobial activity against Candida albicans assessed as zone of inhibition incubated for 24 hrs by agar diffusion method; format: functional
[32] = system: Proteus vulgaris; experiment: Antimicrobial activity against Proteus vulgaris NCIM 2813 assessed as zone of inhibition incubated for 24 hrs by agar diffusion method; format: functional
[33] = system: Staphylococcus aureus; experiment: Antimicrobial activity against Staphylococcus aureus NCIM 2120 assessed as zone of inhibition incubated for 24 hrs by agar diffusion method; format: functional
[34] = system: Escherichia coli; experiment: Antimicrobial activity against Escherichia coli NCIM 2065 assessed as zone of inhibition incubated for 24 hrs by agar diffusion method; format: functional
[35] = Cytotoxicity against green monkey Vero cells; format: toxicity, cell-based; conditions: green monkey (Chlorocebus sabaeus)
[36] = system: Mycobacterium tuberculosis; experiment: Antibacterial activity against Mycobacterium tuberculosis H37Rv assessed as inhibition of bacterial growth by two-fold serial dilution method; format: functional
[37] = system: Nakaseomyces glabratus; experiment: Antifungal activity against Candida glabrata ATCC 90030 assessed as inhibition of fungal growth incubated for 24 hrs by microtiter plate reader assay; format: functional

`Cc1ccc2c(c1)c1c(n2CCCNCc2ccccc2)CCCC1` showed an MIC80 [1] of 0.016 µg/mL (≈ 0.0481 µM), an MIC80 [2] of 1 µg/mL (≈ 3.01 µM) and an MIC80 [3] of 32 µg/mL (≈ 96.2 µM).
`OCC(CO)(CO)NCC(O)Cn1c2ccc(Cl)cc2c2cc(Cl)ccc21` (configuration not stated) gave an MIC [4] of 15 µM (≈ 6.2 µg/mL) and an MIC [5] of 50 µM (≈ 20.7 µg/mL).
With `Fc1cc(F)c2c(c1)[nH]c1ccc(F)cc12` the MIC [6] was 1.5 µg/mL (≈ 6.78 µM), the MIC [7] was 1.5 µg/mL (≈ 6.78 µM) and the MIC [8] was 1.5 µg/mL (≈ 6.78 µM). The MIC [9] was 1.5 µg/mL, the MIC [10] was 1.5 µg/mL (≈ 6.78 µM) and the MIC [11] was 1.5 µg/mL (≈ 6.78 µM). For the same compound, the MIC [12] was 1.5 µg/mL (≈ 6.78 µM).
Work on `c1ccc(CCNC2CCCc3c2[nH]c2ccc(C4CCCCC4)cc32)cc1` (configuration not stated) yielded an MIC [13] of 2 µg/mL (≈ 5.37 µM), an MIC [14] of 2 µg/mL (≈ 5.37 µM) and an MIC [15] of 1 µg/mL (≈ 2.68 µM). The MIC [16] was 2 µg/mL (≈ 5.37 µM) and the MIC [17] was 2 µg/mL (≈ 5.37 µM).
For `COc1ccc2[nH]c3c(O)cccc3c2c1Cl`, the MIC [18] was 32 µg/mL, the MIC [19] was 32 µg/mL and the MIC [20] was 32 µg/mL. The MIC [21] was 32 µg/mL.
With `CCOc1nc2c(c(-c3cccs3)c1C(N)=O)CCc1c-2[nH]c2ccc(Cl)cc12` the “inhibition zone (IZ)” value [22] was 2.1 cm and the “inhibition zone (IZ)” value [23] was 1.1 cm.
Work on `N#Cc1ccc2c(c1)[nH]c1c(-c3c[nH]c4ccc(C#N)cc34)ccc(-c3c[nH]c4ccc(C#N)cc34)c12` yielded an MIC [24] of 8 µg/mL (≈ 16.9 µM) and an MIC [25] of 16 µg/mL (≈ 33.9 µM).
Compound `Clc1ccc2[nH]c3c(c2c1)CCCC3NCc1ccc(-c2ccccc2)cc1` (configuration not stated) has an MIC50 [26] of 6.8 µM (≈ 2.63 µg/mL).
`COC12C(=O)N(C)C(=O)C1(OC)c1c([nH]c3cc(Cl)ccc13)-c1[nH]c3cc(Cl)ccc3c12` (configuration not stated) gave an MIC [27] of 3.1 µg/mL (≈ 6.59 µM) and an MIC [28] of 3.1 µg/mL (≈ 6.59 µM).
Compound `CC(C)=CC1OC(=O)c2cc(O)c3[nH]c4ccccc4c3c21` (configuration not stated) has an MIC [29] of 64 µg/mL and an MIC [30] of 64 µg/mL.
For `Cn1c2ccccc2c2cc(/C=C/C(=O)c3ccc([N+](=O)[O-])cc3)ccc21`, the “inhibition zone (IZ)” value [31] was 5 mm, the “inhibition zone (IZ)” value [32] was 4 mm and the “inhibition zone (IZ)” value [33] was 4.5 mm. For the same compound, the “inhibition zone (IZ)” value [34] was 2.5 mm.
Compound `COc1ccc2[nH]c3c(OCc4ccccc4)cc(C)cc3c2c1` has an IC50 [35] greater than 128 µM and an MIC90 [36] of 31.7 µg/mL (≈ 99.9 µM).
In the case of `FC(F)(F)Oc1ccc2c3c([nH]c2c1)C(NCCOc1ccc(Cl)cc1)CCC3` (configuration not stated), the MIC50 [37] is reported as 5.3 µM (≈ 2.25 µg/mL).
